Five molecules from patent publication US20170368104A1, “INDUCTION OF TOLERANCE IN LUNG ALLOGRAFT TRANSPLANTATION” (Washington University, priority 2013, published 2017) can be followed below.

The assay has as its system B6 CD45.1^+ CD4^+ T cells. Briefly: In vitro mixed lymphocyte reaction, CD4+ responders. In kind it is cell-based, mouse. The note with it: agent added to MLR containing accepting allograft-derived CD8+ T cells. As for the experimental part:
In vitro mixed lymphocyte reactions were performed in round bottom 96-well plates using 3×10^5 T cell-depleted Balb/c splenocyte stimulators with 10^5 CFSE-labeled B6 CD45.1^+ CD4^+ or CD8^+ T cell responders and, as indicated, 10^5 CD8^+ T cells isolated from lungs or spleens of immunosuppressed B6 recipients of Balb/c allografts. For some experiments central and effector memory T cells were sorted from lungs of resting mice. T cell responses were evaluated flow cytometrically on day 5. All compounds inhibiting the metabolism of essential amino acids were obtained from Sigma-Aldrich (St. Louis, Mo.) and added to the co-cultures as previously described for the duration of the experiment (41).
Consider `Cn1cc(C[C@H](N)C(=O)O)c2ccccc21` [1-methyl-tryptophan], for which the “CD8+ T cell-mediated suppression of CD4+ T lymphocyte proliferation” value (“CD8+ T cell-mediated suppression” below) is reported as “did not affect proliferation”.
On to `NC(=NCCC[C@H](N)C(=O)O)N[N+](=O)[O-]` [L-NNA, NG-nitro-L-Arginine; L-NG-Nitroarginine], for which the “CD8+ T cell-mediated suppression” value was “able to attenuate”.
As to `N=C(N)NCCC[C@H](N)C(=O)O` [L-arginine], the “CD8+ T cell-mediated suppression” value was “did not reverse”.
In the case of `CC(=N)NCCCC[C@H](N)C(=O)O.Cl.Cl` [L-nil, N6-(1-iminoethyl)-L-lysine, dihydrochloride], the “CD8+ T cell-mediated suppression” value was “able to attenuate”.
With `CCC[C@H](N)C(=O)O` [L-novaline], the “CD8+ T cell-mediated suppression” value was “did not affect proliferation”.
